Measurements: ChEMBL document CHEMBL1201862, “PubChem BioAssay data set” (2004)
Active and inactive are the calls of the source.

Experiments:
[1] = growth suppression of PTEN-null colon cells, dose response, cell-based, HCT116 PTEN knockout (AID 1047); assay type: functional;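 note: HCT116 colon tumor cells with PTEN knocked out; cells exposed to compound for 60 hours before readout; potency for loss of cell viability measured by luminescence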
[2] = growth suppression of beta-catenin-knockout colon cells, dose response, cell-based, HCT116, human colon tumor (AID 1045); assay type: functional;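 note: HCT116 colon tumor cells with beta catenin knocked out; cells exposed to compound for 60 hours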
[3] = Luminescence Cell-Based Dose Retest to Confirm Inhibitors of Cancer Stem Cells. [Related pubchem assays (depositor defined):AID2717, AID2721]; assay type: functional; conditions: Homo sapiens
H4 = experiment: Luminescence Cell-Based Dose Response HTS to Identify Activators of 5'UTR Stem-Loop Driven Prion Protein mRNA Translation in H4 Neuroglioblastoma Cells. [Related pubchem assays: 1829 (Project Summary), 1814 (Primary HTS)]; assay type: functional; conditions: Homo sapiens
Cytochrome P450 2C19 = Cytochrome P450 2C19 (Homo sapiens, UniProt P33261); experiment: Cytochrome panel assay with activity outcomes. Panel member name: p450-cyp2c19 Compounds with AC50 equal or less than 10 uM are considered active; assay type: functional; conditions: read-out: AC50
Cytochrome P450 2C19, sequence (P33261 whole entry): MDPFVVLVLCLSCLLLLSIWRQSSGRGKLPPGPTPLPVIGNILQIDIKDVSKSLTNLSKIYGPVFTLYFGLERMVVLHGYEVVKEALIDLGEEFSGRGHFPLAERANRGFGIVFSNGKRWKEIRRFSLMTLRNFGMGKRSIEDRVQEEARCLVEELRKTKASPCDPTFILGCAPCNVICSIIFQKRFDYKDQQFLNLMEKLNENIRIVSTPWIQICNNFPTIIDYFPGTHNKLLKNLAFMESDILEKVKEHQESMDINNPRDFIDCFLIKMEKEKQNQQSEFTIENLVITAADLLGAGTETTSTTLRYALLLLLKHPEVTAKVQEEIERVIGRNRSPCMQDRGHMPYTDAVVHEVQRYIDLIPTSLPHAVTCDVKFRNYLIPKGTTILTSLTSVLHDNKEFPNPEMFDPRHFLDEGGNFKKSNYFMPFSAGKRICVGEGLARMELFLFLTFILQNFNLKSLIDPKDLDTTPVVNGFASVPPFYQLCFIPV

[4] = Luminescence Cell-Based Dose Response HTS to Identify Activators of Luciferase Translation or Activity in H4 […] Cells. [Related pubchem assays: 1829 (Project Summary), 1814 (Primary HTS)]; assay type: functional
Cytochrome P450 2C9 = Cytochrome P450 2C9 (Homo sapiens, UniProt P11712)
Cytochrome P450 2C9, sequence (P11712 whole entry): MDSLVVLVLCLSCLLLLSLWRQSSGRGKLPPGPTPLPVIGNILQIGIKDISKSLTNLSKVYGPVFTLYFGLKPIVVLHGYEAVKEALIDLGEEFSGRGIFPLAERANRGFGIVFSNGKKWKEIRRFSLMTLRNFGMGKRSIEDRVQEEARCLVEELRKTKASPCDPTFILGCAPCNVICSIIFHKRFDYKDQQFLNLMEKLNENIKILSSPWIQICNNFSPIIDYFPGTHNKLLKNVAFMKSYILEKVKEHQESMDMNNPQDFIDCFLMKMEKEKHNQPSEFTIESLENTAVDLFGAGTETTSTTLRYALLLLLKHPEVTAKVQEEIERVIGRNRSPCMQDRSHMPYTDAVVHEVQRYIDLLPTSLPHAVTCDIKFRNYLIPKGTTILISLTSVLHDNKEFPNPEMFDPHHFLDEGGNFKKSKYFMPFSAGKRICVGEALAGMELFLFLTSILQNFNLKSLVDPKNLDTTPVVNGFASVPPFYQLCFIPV

[5] = Luminescence Cell-Based Dose Confirmation HTS to Identify Activators of 5'UTR Stem-Loop Driven Alpha-Synuclein mRNA Translation in H4 Neuroglioblastoma Cells. [Related pubchem assays: 1829 (Project Summary), 1814 (Primary HTS)]; assay type: functional
[6] = HEp-2 cell cytotoxicity, dose response, cytotoxicity control for RSV inhibitor project, HTS (AID 2410); assay type: functional; conditions: human respiratory syncytial virus
Cytochrome P450 1A2 = target: T1, Cytochrome P450 1A2 (Homo sapiens, UniProt P05177);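 note: PubChem cytochrome P450 panel assay, CYP1A2 panel member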
T1 sequence (P05177 whole entry): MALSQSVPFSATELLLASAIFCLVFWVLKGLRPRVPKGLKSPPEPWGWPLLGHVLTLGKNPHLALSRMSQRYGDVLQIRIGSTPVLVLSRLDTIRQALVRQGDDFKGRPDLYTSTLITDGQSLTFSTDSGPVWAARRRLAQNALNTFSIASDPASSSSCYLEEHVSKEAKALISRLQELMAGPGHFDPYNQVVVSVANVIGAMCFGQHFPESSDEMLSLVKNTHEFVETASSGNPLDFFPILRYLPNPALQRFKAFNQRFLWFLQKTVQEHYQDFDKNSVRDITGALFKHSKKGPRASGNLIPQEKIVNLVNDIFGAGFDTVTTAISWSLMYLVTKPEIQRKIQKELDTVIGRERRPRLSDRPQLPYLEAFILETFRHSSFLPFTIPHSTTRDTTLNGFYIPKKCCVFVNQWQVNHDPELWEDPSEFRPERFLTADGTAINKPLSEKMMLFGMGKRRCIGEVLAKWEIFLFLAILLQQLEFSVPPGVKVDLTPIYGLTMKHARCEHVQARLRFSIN

[7] = cytotoxicity toward NIH3T3 fibroblasts, dose response, counter-screen, cell-based, ATP luminescence, mouse fibroblasts (AID 2010); assay type: functional;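 note: cells exposed to compound for about 90 hours before reading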
[8] = inhibitors of intracellular T. cruzi replication, confirmation, NIH3T3 host cells, beta-gal luminescence (AID 2044); assay type: functional, cell-based;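 note: intracellular parasites grown in NIH/3T3 mouse fibroblasts as host cells; luminescent beta-galactosidase reporter signal from transgenic T. cruzi replicating inside host cells; inhibitors lower the luminescence signal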
[9] = Luminescence Cell-Based Dose Response HTS to Identify Inhibitors of 5'UTR Stem-Loop Driven Prion Protein mRNA Translation in H4 Neuroglioblastoma Cells. [Related pubchem assays: 1827 (Project Summary), 1813 (Primary HTS)]; assay type: functional
[10] = inhibitors of SNCA 5'UTR-driven reporter translation, confirmation, H4 neuroglioma cells, luminescence (AID 1988); assay type: functional, cell-based
[11] = inhibitors of firefly luciferase expression or activity, dose response, H4 neuroglioma cells, luminescence (AID 1990); assay type: functional, cell-based

CCOC(=O)c1[nH]c2c(c1-c1ccccc1)C(=O)CC(c1ccc(OC)c(OC)c1)C2 (stereo not given)
EC50 [1]: 54 µM (active)
EC50 [2]: 69.1 µM (active)

COc1ccc(OC)c(C(=O)/C=C/c2ccccc2C(F)(F)F)c1
AC50 [3]: 5.2 µM (active)

Cc1nc2nc(-c3ccc(Cl)cc3)nn2c(C)c1Cl
EC50 (H4): 5.95 µM (active)
AC50 (Cytochrome P450 2C19): 39.8 µM (inconclusive)
EC50 [4]: 0.454 µM (active)
AC50 (Cytochrome P450 2C9): 20 µM (inconclusive)

CCCCn1c(SCC(=O)Nc2cc(NC(=O)c3ccco3)ccc2C)nc2ccccc2c1=O
EC50 [1]: 14.4 µM (active)
EC50 [2]: 19.7 µM (active)

CSCC(=O)N1CCC(n2nccc2NC(=O)c2ccc3c(c2)OCO3)CC1
EC50 (H4): > 120 µM (not active)
EC50 [4]: 12.3 µM (active)
EC50 [5]: 13.6 µM (active)

CC(=O)c1cc2c(s1)-c1cc(F)ccc1OC2
CC50 [6]: 33.3 µM (active)

OC(COCC1COc2ccccc2O1)CN1CCN(c2ccccc2F)CC1 (stereo not given)
AC50 (Cytochrome P450 2C9): 20 µM (inconclusive)

c1cncc(-c2nc(NCc3cccs3)c3ccccc3n2)c1
AC50 (Cytochrome P450 2C19): 5.01 µM (inconclusive)
AC50 (Cytochrome P450 2C9): 1 µM (inconclusive)

CCC(C)(C)n1nnnc1C(c1cc2cc(C)cc(C)c2nc1O)N1CCN(C(=O)c2ccco2)CC1 (stereo not given)
EC50 [1]: 28.4 µM (active)
EC50 [2]: 30.2 µM (active)

O=C(OCCOc1ccccc1)c1[nH]nc2ccccc12
EC50 (H4): 98.3 µM (inconclusive)
EC50 [4]: 0.748 µM (active)
EC50 [5]: 3.16 µM (active)

O[C@@H]1[C@H](O)[C@H]2[C@@H](O)CCN2C[C@@H]1O
AC50 (Cytochrome P450 2C19): 39.8 µM (inconclusive)
AC50 (Cytochrome P450 1A2): 31.6 µM (inconclusive)
AC50 (Cytochrome P450 2C9): 25.1 µM (inconclusive)

CC(=O)OC[C@@H]1O[C@H](CCO/N=C(\C)CCC(=O)OC[C@@H]2O[C@H](C#Cc3ccccc3)C=C[C@@H]2Oc2ccc(C)cc2)C=C[C@@H]1OC(C)=O
AC50 (Cytochrome P450 2C9): 6.31 µM (inconclusive)

O=C(Cc1ccc(F)cc1)Nc1nnc(SCC(=O)N2CCCCC2)s1
AC50 [3]: 24.3 µM (active)

COc1ccc(-c2cc(=O)oc3cc(OCC(=O)c4cccc([N+](=O)[O-])c4)ccc23)cc1
EC50 [1]: 24.9 µM (active)
EC50 [2]: 21.8 µM (active)

CC(C)(C)NC(=O)C(c1c[nH]c2ccccc12)N(C(=O)Cn1nnc(-c2ccc(Cl)cc2)n1)c1ccccc1F (stereo not given)
CC50 [6]: 25.8 µM (active)
EC50 [7]: > 60 µM (not active)
EC50 [8]: 1.79 µM (active)

Cc1ccc(C)c(OCCC(=O)N2CCN(S(=O)(=O)c3cc(C)ccc3C)CC2)c1
EC50 [9]: > 120 µM (not active)
CC50 [6]: 22.3 µM (active)
EC50 [10]: 97 µM (active)
EC50 [11]: > 120 µM (not active)

Cc1ccc(N=NC2=C(O)OC(C)(C)OC2=O)c(C)c1
EC50 (H4): 19.1 µM (active)
EC50 [4]: 14.7 µM (active)
EC50 [5]: 15 µM (active)

Cn1cccc1C(=O)N1CCC2(CC1)CCN(c1ccccn1)CC2
AC50 (Cytochrome P450 1A2): 15.8 µM (inconclusive)
AC50 (Cytochrome P450 2C9): 31.6 µM (inconclusive)

Cc1ccc(Nc2[nH]nc(C)c2[N+](=O)[O-])cc1
EC50 (H4): 0.172 µM (active)
EC50 [4]: 25.3 µM (active)
EC50 [5]: 44.9 µM (active)

CCOc1ccccc1NC(=O)c1nnn(-c2ccc3c(c2)OCCO3)c1N
CC50 [6]: 24.3 µM (active)

Cc1nc2cncnc2n(C2CC2)c1=O
AC50 (Cytochrome P450 2C9): 7.94 µM (inconclusive)

Cc1nc2c(sc3nc4c(cc32)COC(C)(C)C4)c(=O)n1Cc1ccccc1
EC50 (H4): 11.6 µM (active)
EC50 [4]: 7.48 µM (active)
EC50 [5]: 7.25 µM (active)

COCCn1c(=O)c(-c2cn(C)c3ccccc23)nc2cncnc21
AC50 (Cytochrome P450 2C19): 25.1 µM (inconclusive)
AC50 (Cytochrome P450 2C9): 10 µM (inconclusive)

CC(/C=N/NC(=O)c1cc(-c2ccc(C)s2)[nH]n1)=C\c1ccccc1
AC50 [3]: 0.501 µM (active)

CCn1c2c(c3ccc(OC)cc31)CCCC2=O
CC50 [6]: > 50 µM (active)

Cc1cc(C)c(NC(=O)CSc2nc(COc3ccccc3)nc3ccccc23)c(C)c1
EC50 [9]: 16.6 µM (active)
EC50 [10]: > 120 µM (not active)
EC50 [11]: > 120 µM (not active)
